In patent US5780498A, “Endothelin receptor antagonists” (Ciba-Geigy Japan Limited, priority 1993, dated 1998):

What was measured:
ETA receptor = target: T1, ETA receptor (Sus scrofa, UniProt Q29010); experiment: Endothelin (ET) receptor binding assay, ETA ([125I]ET-1 in the presence of 1 nM nonlabeled ET-3, porcine lung plasma membrane); conditions: for inhibition at 10 µM: 10^-5 M of the test compound, specific ETA binding; for Ki: from inhibition curves for the binding of [125I]ETs
T1 construct: The plasma membrane of porcine lung; from tissue; host or cells: porcine lung plasma membrane
T1 sequence (Q29010 21-427): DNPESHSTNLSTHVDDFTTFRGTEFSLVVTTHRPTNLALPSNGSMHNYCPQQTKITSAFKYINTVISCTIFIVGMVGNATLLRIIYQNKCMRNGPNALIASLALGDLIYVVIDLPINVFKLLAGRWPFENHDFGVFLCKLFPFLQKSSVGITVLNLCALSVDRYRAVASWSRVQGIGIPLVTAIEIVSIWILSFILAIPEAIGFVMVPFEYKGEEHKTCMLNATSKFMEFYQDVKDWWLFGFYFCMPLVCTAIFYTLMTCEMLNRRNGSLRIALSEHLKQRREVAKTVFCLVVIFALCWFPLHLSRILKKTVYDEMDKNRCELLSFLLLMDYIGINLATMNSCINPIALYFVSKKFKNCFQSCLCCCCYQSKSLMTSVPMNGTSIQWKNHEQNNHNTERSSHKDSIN
Experimental: (§1) Nonspecific binding is defined as membrane-associated radioactivity in the presence of saturating concentrations of ETs (100 nM). Nonspecific binding is subtracted from the total binding and the difference is defined as specific binding.

ETB receptor = target: T2, ETB receptor (Sus scrofa, UniProt P35463); experiment: Endothelin (ET) receptor binding assay, ETB ([125I]ET-3 alone, porcine lung plasma membrane); conditions: for inhibition at 0.1 µM: 10^-7 M of the test compound, specific ETB binding; for Ki: from inhibition curves for the binding of [125I]ETs
T2 construct: The plasma membrane of porcine lung; from tissue; host or cells: porcine lung plasma membrane
T2 sequence (P35463 27-443): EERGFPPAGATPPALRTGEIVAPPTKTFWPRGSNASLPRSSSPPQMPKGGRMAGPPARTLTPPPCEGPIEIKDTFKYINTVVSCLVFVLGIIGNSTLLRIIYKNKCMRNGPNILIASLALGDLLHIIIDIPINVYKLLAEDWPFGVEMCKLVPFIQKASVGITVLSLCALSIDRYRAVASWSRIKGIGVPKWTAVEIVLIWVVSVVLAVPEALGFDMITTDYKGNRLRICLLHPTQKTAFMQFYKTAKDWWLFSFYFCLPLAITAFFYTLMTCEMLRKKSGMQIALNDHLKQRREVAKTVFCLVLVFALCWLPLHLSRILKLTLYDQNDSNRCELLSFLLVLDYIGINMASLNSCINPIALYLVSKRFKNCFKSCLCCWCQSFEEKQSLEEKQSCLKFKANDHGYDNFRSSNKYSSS
Experimental: as §1

guinea pig trachea = target: T3, guinea pig trachea (Cavia porcellus, UniProt H0VTF3); experiment: Contraction of guinea pig trachea (inhibition of ET-3 induced contraction); conditions: ET-3 contraction; Krebs-Henseleit solution; 60 mM KCl reference standard; read-out: pA2 (converted)
T3 construct: The trachea which is isolated from male Hartley guinea pigs; from tissue; host or cells: guinea pig (Hartley) tracheal rings, epithelium removed
T3 sequence (H0VTF3 27-415): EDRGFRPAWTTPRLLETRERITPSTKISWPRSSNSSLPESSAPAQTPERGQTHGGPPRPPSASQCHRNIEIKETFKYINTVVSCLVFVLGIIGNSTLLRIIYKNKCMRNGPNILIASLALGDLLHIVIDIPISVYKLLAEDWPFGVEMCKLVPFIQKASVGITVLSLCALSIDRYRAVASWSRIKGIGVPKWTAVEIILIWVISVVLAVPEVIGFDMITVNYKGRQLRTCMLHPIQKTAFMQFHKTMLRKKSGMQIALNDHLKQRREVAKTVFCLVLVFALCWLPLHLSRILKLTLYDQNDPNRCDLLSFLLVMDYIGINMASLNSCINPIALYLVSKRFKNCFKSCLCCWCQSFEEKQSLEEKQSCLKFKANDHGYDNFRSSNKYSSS
Experimental: Contraction assays are performed basically according to the published method (M. Takai et al. Biochem. Biophys. Res. Commun. 184, 953-959, 1992). The trachea which is isolated from male Hartley guinea pigs weighing 350-500 g, is cut into rings of approximately 2 mm length after removal of the adherent fat and connective tissues. The epithelium is removed mechanically from the rings. The preparations are placed in organ baths containing a Krebs-Henseleit or Tyrode solution at 37° C., pH 7.4 bubbled with 95% O2 and 5% CO2. Tension is measured isometrically via a force-displacement transducer (Nikhon Kohden, Tokyo, TB-612T) under an initial tension of 1 g. Concentration-response curves for ET-3 are obtained by its cumulative application. Inhibitory activities of given compounds are investigated by the addition of their DMSO solutions into the baths 10 to 40 min before the addition of ET-3. These activities are evaluated numerically by pA2 values which are negative logarithms of compound concentrations inducing a shift of the ET-3 concentration-effective curves toward the 2-fold higher concentration range of ET-3. Contraction produced by 60 mM KCl or 10 μM carbachol is used as a reference standard.

Cc1cc(C)cc(C(=O)N(C)[C@H](Cc2ccccc2)C(=O)N[C@@H](Cc2c[nH]c3ccccc23)C(=O)O)c1 [Example 1, N-(3,5-Dimethylbenzoyl)-N-methyl-(D)-phenylalanyl-(L)-tryptophan]
inhibition at 10 µM (ETA receptor): 37%
inhibition at 0.1 µM (ETB receptor): 55%
Kb (guinea pig trachea): 501 nM

Cc1cc(C)cc(C(=O)N(C)[C@H](Cc2ccc(-c3ccccc3)cc2)C(=O)N[C@@H](Cc2c[nH]c3ccccc23)c2nn[nH]n2)c1 [Example 4, 5-[N-(3,5-dimethylbenzoyl)-N-methyl-(D)-(4-phenylphenyl)alanyl-(L)-tryptophanyl]-1H-tetrazole]
inhibition at 10 µM (ETA receptor): 74%
inhibition at 0.1 µM (ETB receptor): 93%

Cc1cc(C)cc(C(=O)N(C)[C@H](Cc2ccc(-c3ccccc3)cc2)C(=O)NC(Cc2csc3ccccc23)C(=O)O)c1 (some centres unmarked) [Example 7]
inhibition at 10 µM (ETA receptor): 77%
inhibition at 0.1 µM (ETB receptor): 87%

Cc1cc(C)cc(C(=O)N(C)[C@H](Cc2ccc(-c3ccccc3)cc2)C(=O)N(C)[C@@H](Cc2c[nH]c3ccccc23)C(=O)O)c1 [Example 12, N-(3,5-Dimethylbenzoyl)-N-methyl-(D)-(4-phenylphenyl)alanyl-N-methyl-(L)-tryptophan]
inhibition at 10 µM (ETA receptor): 36%
inhibition at 0.1 µM (ETB receptor): 91%

Cc1cc(C)cc(C(=O)N(C)[C@H](Cc2ccc(-c3ccccc3)cc2)C(=O)N[C@@H](Cc2c[nH]c3ccccc23)C(=O)O)c1 [Example 55, N-(3,5-Dimethylbenzoyl)-N-methyl-(D)-(4-phenylphenyl)alanyl-(L)-tryptophan]
inhibition at 10 µM (ETA receptor): 94%
Ki (ETA receptor): 440 nM
inhibition at 0.1 µM (ETB receptor): 100%
Ki (ETB receptor): 1 nM

Cc1cc(C)cc(C(=O)N(C)C(C(=O)N[C@@H](Cc2c[nH]c3ccccc23)C(=O)O)C(c2ccccc2)c2ccccc2)c1 (some centres unmarked) [Example 57, N-(3,5-dimethylbenzoyl)-N-methyl-(D,L)-3-(diphenyl)alanyl-(L)-tryptophan]
inhibition at 10 µM (ETA receptor): 34%
inhibition at 0.1 µM (ETB receptor): 95%

COc1ccc(C[C@H](C(=O)N[C@@H](Cc2c[nH]c3ccccc23)C(=O)O)N(C)C(=O)c2cc(C)cc(C)c2)cc1 [Example 65, N-(3,5-dimethylbenzoyl)-N-methyl-O-methyl-(D)-tyrosyl-(L)-tryptophan]
inhibition at 10 µM (ETA receptor): 47%
inhibition at 0.1 µM (ETB receptor): 59%

Cc1cc(C)cc(C(=O)N(C)[C@H](Cc2ccc(-c3ccccc3)cc2)C(=O)CC(Cc2c[nH]c3ccccc23)C(=O)O)c1 (some centres unmarked) [Example 84]
inhibition at 10 µM (ETA receptor): 46%
inhibition at 0.1 µM (ETB receptor): 70%

Cc1cc(C)cc(C(=O)N(C)[C@H](Cc2ccc(-c3ccsc3)cc2)C(=O)N[C@@H](Cc2c[nH]c3ccccc23)C(=O)O)c1 [Example 91, N-(3,5-dimethylbenzoyl)-N-methyl-(D)-3-[4-(3-thienyl)phenyl]alanyl-(L)-tryptophan]
inhibition at 10 µM (ETA receptor): 100%
Ki (ETA receptor): 54 nM
inhibition at 0.1 µM (ETB receptor): 100%
Ki (ETB receptor): 0.23 nM

Cc1cc(C)cc(C(=O)N(C)[C@H](Cc2ccc(-c3cccs3)cc2)C(=O)N[C@@H](Cc2c[nH]c3ccccc23)C(=O)O)c1 [Example 93, N-(3,5-dimethylbenzoyl)-N-methyl-(D)-3-[4-(2-thienyl)phenyl]alanyl-(L)-tryptophan]
Ki (ETA receptor): 87 nM
Ki (ETB receptor): 0.6 nM

Cc1cc(C)cc(C(=O)N(C)[C@H](Cc2ccc(-c3ccno3)cc2)C(=O)N[C@@H](Cc2c[nH]c3ccccc23)C(=O)O)c1 [Example 95, N-(3,5-dimethylbenzoyl)-N-methyl-(D)-3-[4-(5-isoxazolyl)phenyl]alanyl-(L)-tryptophan]
inhibition at 10 µM (ETA receptor): 98%
Ki (ETA receptor): 45 nM
inhibition at 0.1 µM (ETB receptor): 98%
Ki (ETB receptor): 0.21 nM
